According to PubChem BioAssay (NCI):
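Dose response: 5 concentrations. Exposure: 48 h. Format: 96-well plates. Endpoint: linear interpolation; highest concentration if not reached. At the TGI there is no net growth.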

Columns and labels:
Test in all cases: inhibition of tumour cell growth, NCI panel, 48 h
HOP-62 NSCLC = system: HOP-62 NSCLC
MDA-N = system: MDA-N
UACC-257 melanoma = system: UACC-257 melanoma
UO-31 renal = system: UO-31 renal
HS 578T breast = system: HS 578T breast
OVCAR-3 ovarian = system: OVCAR-3 ovarian
CCRF-CEM leukemia = system: CCRF-CEM leukemia
OVCAR-4 ovarian = system: OVCAR-4 ovarian
SK-MEL-2 melanoma = system: SK-MEL-2 melanoma
SK-MEL-5 melanoma = system: SK-MEL-5 melanoma
HCT-116 colon = system: HCT-116 colon
T-47D breast = system: T-47D breast
UACC-62 melanoma = system: UACC-62 melanoma
DU-145 prostate = system: DU-145 prostate
ACHN renal = system: ACHN renal
MCF7 breast = system: MCF7 breast
SN12C renal = system: SN12C renal
HCT-15 colon = system: HCT-15 colon
SF-268 CNS = system: SF-268 CNS
LOX IMVI melanoma = system: LOX IMVI melanoma
HL-60(TB) leukemia = system: HL-60(TB) leukemia
A549 NSCLC = system: A549 NSCLC
SNB-19 CNS = system: SNB-19 CNS
U251 CNS = system: U251 CNS
SF-539 CNS = system: SF-539 CNS
MALME-3M melanoma = system: MALME-3M melanoma
COLO 205 colon = system: COLO 205 colon
HT29 colon = system: HT29 colon
NCI-H226 lung = system: NCI-H226 lung
SF-295 CNS = system: SF-295 CNS
SK-OV-3 ovarian = system: SK-OV-3 ovarian
NCI-H522 lung = system: NCI-H522 lung
MDA-MB-231 breast = system: MDA-MB-231 breast
OVCAR-5 ovarian = system: OVCAR-5 ovarian
HCC-2998 colon = system: HCC-2998 colon
MOLT-4 leukemia = system: MOLT-4 leukemia
PC-3 prostate = system: PC-3 prostate
RPMI-8226 leukemia = system: RPMI-8226 leukemia
SW-620 colon = system: SW-620 colon
SR leukemia = system: SR leukemia
MDA-MB-435 = system: MDA-MB-435
EKVX NSCLC = system: EKVX NSCLC
CAKI-1 renal = system: CAKI-1 renal
M14 melanoma = system: M14 melanoma
KM12 colon = system: KM12 colon
NCI-H23 lung = system: NCI-H23 lung
OVCAR-8 ovarian = system: OVCAR-8 ovarian
RXF 393 renal = system: RXF 393 renal
786-0 renal = system: 786-0 renal
NCI-H460 lung = system: NCI-H460 lung
SNB-75 CNS = system: SNB-75 CNS
NCI/ADR-RES ovarian = system: NCI/ADR-RES ovarian
SK-MEL-28 melanoma = system: SK-MEL-28 melanoma
K-562 leukemia = system: K-562 leukemia
IGROV1 ovarian = system: IGROV1 ovarian
HOP-92 NSCLC = system: HOP-92 NSCLC
TK-10 renal = system: TK-10 renal

C=CCNC(=S)/N=C\C(C(=O)OCC)=C(/O)C(=O)OCC
TGI (HOP-62 NSCLC): > 100 µM
TGI (MDA-N): > 100 µM
TGI (UACC-257 melanoma): > 100 µM
TGI (UO-31 renal): > 100 µM
TGI (HS 578T breast): > 100 µM
TGI (OVCAR-3 ovarian): > 100 µM
TGI (CCRF-CEM leukemia): > 100 µM
TGI (OVCAR-4 ovarian): > 100 µM
TGI (SK-MEL-2 melanoma): > 100 µM
TGI (SK-MEL-5 melanoma): > 100 µM
TGI (HCT-116 colon): > 100 µM
TGI (T-47D breast): > 100 µM
TGI (UACC-62 melanoma): > 100 µM
TGI (DU-145 prostate): > 100 µM
TGI (ACHN renal): > 100 µM
TGI (MCF7 breast): > 100 µM
TGI (SN12C renal): > 100 µM
TGI (HCT-15 colon): > 100 µM
TGI (SF-268 CNS): > 100 µM
TGI (LOX IMVI melanoma): > 100 µM
TGI (HL-60(TB) leukemia): > 100 µM
TGI (A549 NSCLC): > 100 µM
TGI (SNB-19 CNS): > 100 µM
TGI (U251 CNS): > 100 µM
TGI (SF-539 CNS): > 100 µM
TGI (MALME-3M melanoma): > 100 µM
TGI (COLO 205 colon): > 100 µM
TGI (HT29 colon): > 100 µM
TGI (NCI-H226 lung): > 100 µM
TGI (SF-295 CNS): > 100 µM
TGI (SK-OV-3 ovarian): > 100 µM
TGI (NCI-H522 lung): > 100 µM
TGI (MDA-MB-231 breast): > 100 µM
TGI (OVCAR-5 ovarian): > 100 µM
TGI (HCC-2998 colon): > 100 µM
TGI (MOLT-4 leukemia): > 100 µM
TGI (PC-3 prostate): > 100 µM
TGI (RPMI-8226 leukemia): > 100 µM
TGI (SW-620 colon): > 100 µM
TGI (SR leukemia): > 100 µM
TGI (MDA-MB-435): > 100 µM
TGI (EKVX NSCLC): > 100 µM
TGI (CAKI-1 renal): > 100 µM
TGI (M14 melanoma): > 100 µM
TGI (KM12 colon): > 100 µM
TGI (NCI-H23 lung): > 100 µM
TGI (OVCAR-8 ovarian): > 100 µM
TGI (RXF 393 renal): > 100 µM
TGI (786-0 renal): > 100 µM
TGI (NCI-H460 lung): > 100 µM
TGI (SNB-75 CNS): > 100 µM
TGI (NCI/ADR-RES ovarian): > 100 µM
TGI (SK-MEL-28 melanoma): > 100 µM
TGI (K-562 leukemia): > 100 µM
TGI (IGROV1 ovarian): > 100 µM

C=CC1(c2ccc(-c3ccccc3)cc2)OCCO1
TGI (HOP-62 NSCLC): > 100 µM
TGI (MDA-N): > 100 µM
TGI (UACC-257 melanoma): > 100 µM
TGI (UO-31 renal): > 100 µM
TGI (HS 578T breast): 69 µM
TGI (OVCAR-3 ovarian): > 100 µM
TGI (CCRF-CEM leukemia): 86.4 µM
TGI (OVCAR-4 ovarian): > 100 µM
TGI (SK-MEL-2 melanoma): 53.7 µM
TGI (SK-MEL-5 melanoma): > 100 µM
TGI (HCT-116 colon): > 100 µM
TGI (T-47D breast): > 100 µM
TGI (UACC-62 melanoma): 89.1 µM
TGI (HOP-92 NSCLC): 87.1 µM
TGI (DU-145 prostate): > 100 µM
TGI (ACHN renal): > 100 µM
TGI (MCF7 breast): > 100 µM
TGI (SN12C renal): > 100 µM
TGI (HCT-15 colon): > 100 µM
TGI (SF-268 CNS): > 100 µM
TGI (LOX IMVI melanoma): > 100 µM
TGI (A549 NSCLC): > 100 µM
TGI (SNB-19 CNS): > 100 µM
TGI (U251 CNS): > 100 µM
TGI (SF-539 CNS): > 100 µM
TGI (MALME-3M melanoma): > 100 µM
TGI (TK-10 renal): > 100 µM
TGI (COLO 205 colon): > 100 µM
TGI (HT29 colon): 81.2 µM
TGI (NCI-H226 lung): 64.1 µM
TGI (SF-295 CNS): > 100 µM
TGI (SK-OV-3 ovarian): > 100 µM
TGI (NCI-H522 lung): > 100 µM
TGI (MDA-MB-231 breast): > 100 µM
TGI (OVCAR-5 ovarian): > 100 µM
TGI (HCC-2998 colon): > 100 µM
TGI (MOLT-4 leukemia): > 100 µM
TGI (PC-3 prostate): > 100 µM
TGI (RPMI-8226 leukemia): > 100 µM
TGI (SW-620 colon): > 100 µM
TGI (SR leukemia): 84.6 µM
TGI (MDA-MB-435): > 100 µM
TGI (EKVX NSCLC): > 100 µM
TGI (M14 melanoma): > 100 µM
TGI (KM12 colon): > 100 µM
TGI (NCI-H23 lung): 89.8 µM
TGI (OVCAR-8 ovarian): > 100 µM
TGI (RXF 393 renal): 88.6 µM
TGI (786-0 renal): > 100 µM
TGI (NCI-H460 lung): > 100 µM
TGI (SNB-75 CNS): > 100 µM
TGI (NCI/ADR-RES ovarian): > 100 µM
TGI (SK-MEL-28 melanoma): > 100 µM
TGI (K-562 leukemia): 61.9 µM
TGI (IGROV1 ovarian): > 100 µM
